In patent US12139488B2, “Pyrido[3,2-d]pyrimidine compounds uses thereof for treating a proliferative disease” (Universite de Montreal, priority 2021, dated 2024):
Like-named read-outs stand apart in the source and are kept apart here.

Columns and labels:
BRAF = BRAF (Homo sapiens (Human), UniProt P15056); assay: BRAF kinase activity assay (ADP-Glo); assay type: biochemical
Procedure: (§1) Compound preparation: solid samples of each substances in 1 dram vials were suspended in DMSO (Fisher Scientific) at a stock concentration of 20 mM. Stocks were kept at −20° C. and protected from light.
(§2) In vitro enzymatic reactions were used for evaluating compounds intrinsic activity against BRAF, CRAF and ARAF. […] Separate reactions were performed with the MEK1 substrate and ATP as a blank control.
(§3) For compound treatment, 5 μL/well of test substance solution are placed in a 384-well proxyplate (Perkin Elmer) and mixed with 2× concentrated kinase reactions. The dilution series is selected so that nine concentrations cover a range from 100 nM to 0.01 nM. […] The final concentration of DMSO in the assay is set at 0.05%.
(§4) BRAF and CRAF kinase reactions were carried out for a total of 2 hours at 30° C. and then stopped by ½ dilution in ADP-Glo Reagent (cat #V9102; Promega; part V912C). Reactions were then incubated for 1h at room temperature before addition of one volume of Kinase Detection Reagent (cat #V9102; Promega; part V917A). Plates were then equilibrated at room temperature for 30 minutes before detection of luminescence on a Synergy Neo2 plate reader (Biotek). The effect of each compound dilution on BRAF and CRAF kinase activity was expressed as % inhibition and calculated as follows.
(§5) IC50 values were obtained by plotting the kinase inhibition values and fitting the dose-activity curves using a log(agonist) versus response-variable slope (four parameters) function using either GraphPadPrism (V7.0) or Dotmatics Screening Ultra platform.

CRAF = CRAF (Homo sapiens, UniProt P04049); assay: CRAF kinase activity assay (ADP-Glo); assay type: biochemical
CRAF, sequence (P04049 whole entry, looked up): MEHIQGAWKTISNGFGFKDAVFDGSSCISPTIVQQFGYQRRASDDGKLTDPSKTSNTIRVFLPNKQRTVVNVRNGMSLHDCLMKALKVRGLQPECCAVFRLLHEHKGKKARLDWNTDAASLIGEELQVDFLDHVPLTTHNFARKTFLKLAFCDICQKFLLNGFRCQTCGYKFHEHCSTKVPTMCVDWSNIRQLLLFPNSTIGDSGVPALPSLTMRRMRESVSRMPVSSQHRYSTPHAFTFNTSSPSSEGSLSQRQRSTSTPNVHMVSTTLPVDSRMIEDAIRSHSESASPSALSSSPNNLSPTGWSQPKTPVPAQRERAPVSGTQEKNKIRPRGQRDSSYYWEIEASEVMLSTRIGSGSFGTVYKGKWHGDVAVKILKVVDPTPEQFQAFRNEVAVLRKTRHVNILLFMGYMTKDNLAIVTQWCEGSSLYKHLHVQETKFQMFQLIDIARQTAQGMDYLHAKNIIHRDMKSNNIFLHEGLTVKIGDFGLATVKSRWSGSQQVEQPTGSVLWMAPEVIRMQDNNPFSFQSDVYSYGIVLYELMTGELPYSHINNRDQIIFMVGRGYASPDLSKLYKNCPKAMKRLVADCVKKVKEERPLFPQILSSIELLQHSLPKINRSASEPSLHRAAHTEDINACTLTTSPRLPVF
Procedure: as §1, §2, §3, §4, §5

[1] = test system: pERK in HCT-116 cells (KRAS G13D); assay: Phospho-ERK inhibition (AlphaLISA SureFire Ultra p-ERK 1/2), HCT116; assay type: cell-based, human; conditions: for HCT116 pERK % Ymin (lowest value of the IC50 curve): Ymin above −20% = minimal or no paradoxical activation
How it was run: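 Overnight-seeded cells received compound for an hour before lysis, and phospho-ERK1/2 was then measured with an AlphaLISA SureFire Ultra kit. Percent inhibition relative to vehicle, after trametinib background subtraction, gave IC50 by curve fitting.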

[2] = test system: pERK in SW480 cells (KRAS G12D); assay: Phospho-ERK inhibition (AlphaLISA), SW480; assay type: cell-based, human
Procedure: All cancer cell lines (A375, A101D, A2058, RKO, HT29 SK-MEL 30, IPC298, HepG2, HCT-116, Lovo, SWV620, SW480, NCI-H358, NCI-H2122, Calu-6, NCIH2087, NCIH1755, NCIH1666 and Mewo) were obtained from ATCC and cultured in RPMI-1640 medium (Gibco) supplemented with 5% heat inactivated fetal bovine serum (FBS, Wisent) at 37° C. under 5% CO2. Cells were maintained in T175 flasks (Greiner). They were passaged by removing the culture medium, washing once in 10 mL of room temperature Phosphate Buffered Saline (PBS; Wisent) and incubating at 37° C. with 2 mL of 0.05% Trypsin (Thermo-Fisher). Trypsin was then inactivated by adding complete growth medium and the cells were then replated in a T175 culture dish at the appropriate dilution. All cell lines were routinely tested for mycoplasma contamination. Tissue type and mutational status of each cell line can be found in Table B.
AlphaLISA® SureFire® Ultra™ p-ERK 1/2 (Thr202/Tyr204) analysis was conducted on cells plated in 100 μL of complete RPMI-1640 growth medium in 96-well flat-bottomed transparent dishes (Costar) at a density indicated in Table C. Cells were maintained overnight at 37° C. under 5% CO2 before treatment with compounds' dilution series for one hour. The cell density in cells/cm^2 corresponds to cell number divided by the area of one well of a 96-well plate ([…]).
In a dilution series 100 μL/well of test substance dilution prepared in complete RPMI-1640 growth media was added to the cells. The dilution series is selected so that ten concentrations cover a range from 10 μM to 0.33 nM. If necessary the initial concentration of 10 μM is increased to 100 μM or lowered to 1 μM (as in the case of A375 and H1666 cells, which are generally more sensitive to the compounds) and further dilution is carried out accordingly. The final concentration of DMSO in the assay is set at 0.5%.
After treatment, media was removed and cells were lysed in 50 μL of 1× AlphaScreen Ultra Lysis Buffer (Perkin Elmer). The AlphaLISA® SureFire® Ultra™ p-ERK 1/2 (Thr202/Tyr2O4) (PerkinElmer) reactions were performed with 5 μL of cell lysate according to the manufacturer's specifications in 384-well proxyplates (Perkin Elmer) followed by overnight incubation of the reactions at room temperature in a humidified chamber. After completion of the reactions, the signals were recorded on an EnVision plate reader (Perkin Elmer) using built in AlphaLISA® settings.
The effect of each compound dilution on the pERK signal was expressed in % inhibition and calculated as follows. An internal 100% inhibition control ([…] trametinib, cat #HY-10999; MedChem Express; CAS #871700-17-3) was included in each plate and used as a measure of pERK background. First, the value obtained for trametinib was subtracted from each data point. The average of DMSO (vehicle) controls (set as 0% inhibition) was established and used to calculate % inhibition: % inhibition=100*(1-((pERK signalcompound)/(pERK signalDMSO)))
The ability of each compound to inhibit pERK signal was expressed as an IC50 value obtained by plotting the inhibition values for each data point of a dilution series and fitting the obtained curves using a log(agonist) versus response-variable slope (four parameters) function using GraphPadPrism (V7.0) or Dotmatics Screening Ultra platform.
When present, paradoxical pERK induction is inferred from the negative % inhibition values observed in the pERK IC50 curves of a compound.

[3] = read-out: Kinase IC50 (nM) BRAF
[4] = read-out: Kinase IC50 (nM) CRAF
[5] = HCT116 cells, class symbol before the bracket
[6] = SW480 cells, class symbol before the bracket
[7] = lowest % inhibition value of the IC50 curve, HCT116
[8] = lowest % inhibition value of the IC50 curve, SW480
[9] = BRAF, read-out: Kinase IC50 (nM), BRAF biochemical kinase assay
[10] = CRAF, read-out: Kinase IC50 (nM), CRAF biochemical kinase assay

BRAF, sequence (P15056 whole entry): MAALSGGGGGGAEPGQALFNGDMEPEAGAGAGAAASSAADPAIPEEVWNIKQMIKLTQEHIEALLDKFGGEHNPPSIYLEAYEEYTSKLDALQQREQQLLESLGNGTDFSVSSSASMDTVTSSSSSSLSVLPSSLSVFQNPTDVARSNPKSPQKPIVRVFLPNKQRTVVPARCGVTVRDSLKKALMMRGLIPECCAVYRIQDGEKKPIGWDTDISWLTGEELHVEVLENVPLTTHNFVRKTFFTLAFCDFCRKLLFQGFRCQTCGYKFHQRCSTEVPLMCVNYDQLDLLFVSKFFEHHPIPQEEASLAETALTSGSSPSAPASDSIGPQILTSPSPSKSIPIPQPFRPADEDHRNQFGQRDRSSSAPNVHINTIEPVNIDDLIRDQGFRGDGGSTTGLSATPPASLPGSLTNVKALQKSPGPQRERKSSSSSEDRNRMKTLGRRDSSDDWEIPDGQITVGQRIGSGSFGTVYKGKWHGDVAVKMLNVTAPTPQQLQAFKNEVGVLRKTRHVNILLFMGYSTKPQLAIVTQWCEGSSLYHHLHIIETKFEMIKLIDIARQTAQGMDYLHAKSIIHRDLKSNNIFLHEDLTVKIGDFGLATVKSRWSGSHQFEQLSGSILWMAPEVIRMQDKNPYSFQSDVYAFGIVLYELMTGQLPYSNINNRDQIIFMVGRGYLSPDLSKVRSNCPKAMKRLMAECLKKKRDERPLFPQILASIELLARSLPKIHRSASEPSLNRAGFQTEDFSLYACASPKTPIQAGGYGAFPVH

IC50 (BRAF; [3]) [nM]	IC50 (CRAF; [4]) [nM]	IC50 [1, 5] [nM]	IC50 [2, 6] [nM]	SMILES	HCT116 pERK Ymin % ([1]; HCT116 cells, Ymin in brackets) [%]	SW480 pERK Ymin % ([2]; SW480 cells, Ymin in brackets) [%]	further results
1 to 10	> 50	1000 to 10000	1000 to 10000	Nc1ncnc2c1ncn2-c1ccc2ncnc(Nc3c(F)ccc(NS(=O)(=O)c4ccccc4Cl)c3F)c2n1 [Ex 89]	8	−3	–
> 10	> 50	–	–	CCc1ccc(S(=O)(=O)Nc2ccc(F)c(Nc3ncnc4ccc(-n5cnc6ccccc65)nc34)c2F)cc1 [Example 10]	–	–	IC50 ([1]; HCT116 cells, 1 h treatment): 10000 to 30000 nM; HCT116 pERK Ymin % [1, 7]: 1%; IC50 ([2]; SW480 cells, 1 h treatment): 1000 to 10000 nM; SW480 pERK Ymin % [2, 8]: 12%
> 10	10 to 50	500 to 1000	500 to 1000	COc1ccc(S(=O)(=O)Nc2ccc(F)c(Nc3ncnc4ccc(-n5cnc6c(C(N)=O)cccc65)nc34)c2F)c(C)c1 [Example 75]	0	1	–
1 to 10	< 10	< 500	< 500	Nc1cccc2c1ncn2-c1ccc2ncnc(Nc3c(F)ccc(NS(=O)(=O)c4ccccc4Cl)c3F)c2n1 [Example 83]	−7.3	2.5	–
< 1	< 10	< 500	< 500	Nc1cccc2c1nnn2-c1ccc2ncnc(Nc3c(F)ccc(NS(=O)(=O)c4cccc(Cl)c4Cl)c3F)c2n1 [Example 100]	−16	16	–

Continued, molecule first:

SMILES	IC50 (BRAF; [3]) [nM]	IC50 (CRAF; [4]) [nM]	IC50 [1, 5] [nM]	IC50 [2, 6] [nM]	HCT116 pERK Ymin % ([1]; HCT116 cells, Ymin in brackets) [%]	SW480 pERK Ymin % ([2]; SW480 cells, Ymin in brackets) [%]	further results
COc1ccc(S(=O)(=O)Nc2ccc(F)c(Nc3ncnc4ccc(-c5cncs5)nc34)c2F)c(C)c1 [Ex 59]	> 10	10 to 50	500 to 1000	500 to 1000	−0.7	−4.9	–
COc1cncc(-c2ccc3ncnc(Nc4c(F)ccc(NS(=O)(=O)c5ccc(OC)cc5C)c4F)c3n2)c1 [Ex 62]	> 10	> 50	1000 to 10000	1000 to 10000	−9	8	–
Cc1ncn(-c2ccc3ncnc(Nc4c(F)ccc(NS(=O)(=O)c5ccccc5Cl)c4F)c3n2)c1C [Ex 66]	1 to 10	10 to 50	1000 to 10000	1000 to 10000	−2	−5	–
O=S(=O)(Nc1ccc(F)c(Nc2ncnc3ccc(-c4cncs4)nc23)c1F)c1ccccc1Cl [Ex 67]	1 to 10	10 to 50	500 to 1000	500 to 1000	−3.6	−1.3	–
COc1ccc(S(=O)(=O)Nc2ccc(F)c(Nc3ncnc4ccc(-c5cnn6ccccc56)nc34)c2F)c(C)c1 [Ex 73]	> 10	> 50	1000 to 10000	1000 to 10000	5	−1	–
COc1ccc(S(=O)(=O)Nc2ccc(F)c(Nc3ncnc4ccc(-n5cnc6c(N)cccc65)nc34)c2F)c(C)c1 [Ex 76]	1 to 10	10 to 50	< 500	< 500	8	6	–
COc1ccc(S(=O)(=O)Nc2ccc(F)c(Nc3ncnc4ccc(-n5cnc6ccccc65)nc34)c2F)cc1 [Example 1]	1 to 10	10 to 50	–	–	–	–	IC50 ([1]; HCT116 cells, 1 h treatment): 1000 to 10000 nM; HCT116 pERK Ymin % [1, 7]: 8%; IC50 ([2]; SW480 cells, 1 h treatment): 1000 to 10000 nM; SW480 pERK Ymin % [2, 8]: 4%
O=S(=O)(Nc1ccc(F)c(Nc2ncnc3ccc(-n4cnc5ccccc54)nc23)c1F)c1ccccc1Cl [Example 8]	1 to 10	< 10	–	–	–	–	IC50 ([1]; HCT116 cells, 1 h treatment): 500 to 1000 nM; HCT116 pERK Ymin % [1, 7]: −2.5%; IC50 ([2]; SW480 cells, 1 h treatment): 500 to 1000 nM; SW480 pERK Ymin % [2, 8]: 4.8%
CN(C)C(=O)c1cn(-c2ccc3ncnc(Nc4c(F)ccc(NS(=O)(=O)c5ccccc5Cl)c4F)c3n2)c2cccc(N)c12 [Example 96]	< 1	> 50	< 500	< 500	12	12	–
Cc1c(Cl)cccc1S(=O)(=O)Nc1cccc(Nc2ncnc3ccc(-n4cnc5ccccc54)nc23)c1F [Example 240]	–	–	–	–	–	–	IC50 (BRAF; Table 5, read-out: Kinase IC50 (nM) BRAF): 1 to 10 nM; IC50 (CRAF; Table 5, read-out: Kinase IC50 (nM) CRAF): 10 to 50 nM; IC50 ([1]; HCT116 cells, Table 5): < 500 nM; HCT116 pERK Ymin % ([1]; lowest value of the curve, HCT116, Table 5): 7%; IC50 ([2]; SW480 cells, Table 5): < 500 nM; SW480 pERK Ymin % ([2]; lowest value of the curve, SW480, Table 5): (−8) %
O=S(=O)(Nc1ccc(F)c(Nc2ncnc3ccc(-n4cnc5c(C6CCN(CCO)CC6)cccc54)nc23)c1F)c1cccc(Cl)c1Cl [Example 681]	–	–	–	–	–	–	IC50 (BRAF; [9]): < 1 nM; IC50 (CRAF; [10]): < 10 nM; IC50 ([1]; HCT116 cells): < 500 nM; HCT116 pERK % Ymin (lowest value of the IC50 curve) ([1]; HCT116 cells): −9%
Cc1cn(-c2ccc3ncnc(Nc4c(F)ccc(NS(=O)(=O)c5cccc(Cl)c5Cl)c4F)c3n2)nn1 [Example 684]	–	–	–	–	–	–	IC50 (BRAF; [9]): < 1 nM; IC50 (CRAF; [10]): < 10 nM; IC50 ([1]; HCT116 cells): < 500 nM; HCT116 pERK % Ymin (lowest value of the IC50 curve) ([1]; HCT116 cells): −14%
CCC1(O)CCN(c2nccc3c2ncn3-c2ccc3ncnc(Nc4c(F)ccc(NS(=O)(=O)c5cccc(Cl)c5Cl)c4F)c3n2)CC1 [Example 691]	–	–	–	–	–	–	IC50 (BRAF; [9]): 1 to 10 nM; IC50 (CRAF; [10]): 10 to 50 nM; IC50 ([1]; HCT116 cells): < 500 nM; HCT116 pERK % Ymin (lowest value of the IC50 curve) ([1]; HCT116 cells): 6%
